Experimental data: US6258790A, “Antisense modulation of integrin α4 expression” (Isis Pharmaceuticals, Inc., priority 1999, dated 2001)
Values joined by “and” are separate entries in the source; they are usually repeats but may differ in a detail not shown here. Identical values can stand only once.

Tests used:
[1] = system: murine integrin α4; experiment: Antisense inhibition of murine integrin α4 protein expression in IC-21 macrophage cells (flow cytometry, CD49d-PE); format: cell-based, mouse; conditions: for % Control (integrin α4 protein) / % Inhib (integrin α4 protein): Table 11
Protocol: Murine IC-21 macrophage cells (American Type Culture Collection, Manassas, Va.) were used for further study. Additional oligonucleotides were designed to target murine integrin α4. These are shown in Table 10; all 2' MOE nucleotides are shown in bold and remaining positions are 2' deoxy. All 2'-MOE cytosines in these compounds are 5' methylcytosines. IC-21 cells were seeded at 5×10^4 cell/well plates two days before assay. […] Wells were triplicates.
Cells (triplicates) were seeded at 2.5×10^4 cells/well in 24-well plates the day before treatment. Oligonucleotide concentrations were 0.2, 1, 5, 25 and 50 nM in 3 ug/ml LIPOFECTIN. Cells were harvested with 2 mM EDTA for 4 minutes, then 1 ml of 2% BSA, 0.2% azide was added per contents of each well.
IC-21 cells were treated with 0.3, 1, 3, 10 and 30 nM oligonucleotide with 3 ug/ml LIPOFECTIN for 4 hours. Cells were incubated for 24 hours, harvested with trypsin, stained with 2 ug/ml CD49d-PE and rat IgG2B as in previous examples.
These compounds were tested for ability to inhibit integrin α4 protein expression.

[2] = system: human integrin α4; experiment: Inhibition of human integrin α4 protein levels by antisense oligonucleotides (LIPOFECTIN, flow cytometry with CD49d-FITC) in A375 melanoma cells; format: cell-based; design: % Inhib.: tested at 200 nM; conditions: Table 24; A375 cells; lipofectin; as Example 8
[3] = system: human integrin α4; experiment: Integrin α4 protein expression in A375 cells after electroporation of oligonucleotide (flow cytometry); format: cell-based; conditions: 24 hours
Protocol: A375 cells were treated with ISIS 107245, 107248, 107252, 107255 and 107259 by electroporation at 175 volts, r=1, c=1000, 0.2 ml Opti-MEM, 1×10^6 cells /ml, 2 mm gap electrode using a BTX Electro Cell Manipulator 600 (Genetronics, San Diego Calif.). Oligonucleotide concentrations were 1, 3, 10 and 30 μM. Cells were harvested 24 hours after oligonucleotide treatment and strained with 2 ug/ml CD49d-FITC for flow cytometry as in the previous examples.
ISIS 107248 was compared directly to ISIS 27104 for ability to inhibit integrin α4 expression in A375 melanoma cells. Oligonucleotides were electroporated into cells as in the previous example.

[4] = IC-21 cells, 25 nM, triplicates
[5] = IC-21 cells, 25 nM, triplicates, 0.025 µM

Substance: 16428 (antisense GGCCACTGACCAGAGTTGCA; phosphorothioate, 2'-MOE/deoxy gapmer, further chemistry not given here) [compound 16428]
- % Control (integrin α4 protein) [1, 4]: 67%
- % Inhib (integrin α4 protein) [1, 4]: 33%

Substance: 16429 (antisense GGCCACTGACCAGAGTTGCA; phosphorothioate, 2'-MOE/deoxy gapmer, further chemistry not given here) [compound 16429]
- % Control (integrin α4 protein) [1, 4]: 60%
- % Inhib (integrin α4 protein) [1, 4]: 40%

Substance: 16430 (antisense GGCCACTGACCAGAGTTGCA; phosphorothioate, 2'-MOE/deoxy gapmer, further chemistry not given here) [compound 16430]
- % Control (integrin α4 protein) [1, 4]: 50%
- % Inhib (integrin α4 protein) [1, 5]: 50% and > 50%

Substance: 16431 (CCGCAGCCATGCGCTCTTGG; phosphorothioate, 2'-MOE/deoxy, further chemistry not given here) [compound 16431]
- IC50 ([1]; IC-21 cells): ~1 nM
- % Control (integrin α4 protein) [1, 4]: 35%
- % Inhib (integrin α4 protein) [1, 5]: 65% and > 50%
- % Inhib. ([1]; Table 12, 0.2 nM, triplicates): 18%
- % of control ([1]; Table 12, 0.2 nM, triplicates): 82%
- % Inhib. ([1]; Table 12, 1 nM, triplicates): 43%
- % of control ([1]; Table 12, 1 nM, triplicates): 57%
- % Inhib. ([1]; Table 12, 5 nM, triplicates): 66%
- % of control ([1]; Table 12, 5 nM, triplicates): 34%
- % Inhib. ([1]; Table 12, 25 nM, triplicates): 68%
- % of control ([1]; Table 12, 25 nM, triplicates): 32%
- % Inhib. ([1]; Table 12, 50 nM, triplicates): 70%
- % of control ([1]; Table 12, 50 nM, triplicates): 30%

Substance: 16432 (CCGCAGCCATGCGCTCTTGG; phosphorothioate, 2'-MOE/deoxy, further chemistry not given here) [compound 16432]
- % Control (integrin α4 protein) [1, 4]: 53%
- % Inhib (integrin α4 protein) [1, 4]: 47%

Substance: 16434 (CACCTCGCTTCCGCAGCCAT; phosphorothioate, 2'-MOE/deoxy, further chemistry not given here) [compound 16434]
- % Control (integrin α4 protein) [1, 4]: 33%
- % Inhib (integrin α4 protein) [1, 5]: 67% and > 50%

Substance: 16435 (CACCTCGCTTCCGCAGCCAT; phosphorothioate, 2'-MOE/deoxy, further chemistry not given here) [compound 16435]
- % Control (integrin α4 protein) [1, 4]: 30%
- % Inhib (integrin α4 protein) [1, 5]: 70% and > 50%

Substance: 16436 (CACCTCGCTTCCGCAGCCAT; phosphorothioate, 2'-MOE/deoxy, further chemistry not given here) [compound 16436]
- % Control (integrin α4 protein) [1, 4]: 47%
- % Inhib (integrin α4 protein) [1, 5]: 53% and > 50%

Substance: 16437 (CGCTTCCGCAGCCATGCGCT; phosphorothioate, 2'-MOE/deoxy, further chemistry not given here) [compound 16437]
- % Control (integrin α4 protein) [1, 4]: 36%
- % Inhib (integrin α4 protein) [1, 5]: 64% and > 50%

Substance: 16477 (CGGACCAGTACCAGGGTTAC; phosphorothioate, 2'-deoxy, further chemistry not given here) [compound 16477]
- % Control (integrin α4 protein) [1, 4]: 96%

Substance: 16479 (ACCTCCTCGCTCACGCGCTA; phosphorothioate DNA, further chemistry not given here) [compound 16479]
- % Control (integrin α4 protein) [1, 4]: 96%

Substance: 17045 (CCGCAGCCATGCGCTCTTGG; phosphorothioate, 2'-modified, further chemistry not given here) [compound 17045]
- % Control ([1]; Table 16, 0.3 nM): 109%
- % Control ([1]; Table 16, 1 nM): 65%
- % Inhib. ([1]; Table 16, 1 nM): 35%
- % Control ([1]; Table 16, 3 nM): 34%
- % Inhib. ([1]; Table 16, 3 nM): 66%
- % Control ([1]; Table 16, 10 nM): 12%
- % Inhib. ([1]; Table 16, 10 nM): 88%

Substance: 17046 (CCGCAGCCATGCGCTCTTGG; phosphorothioate, 2'-modified, further chemistry not given here) [compound 17046]
- % Control ([1]; Table 16, 0.3 nM): 161%
- % Control ([1]; Table 16, 1 nM): 123%
- % Control ([1]; Table 16, 3 nM): 125%
- % Control ([1]; Table 16, 10 nM): 75%
- % Inhib. ([1]; Table 16, 10 nM): 25%

Substance: 17047 (CCGCAGCCATGCGCTCTTGG; phosphorothioate, 2'-modified, further chemistry not given here) [compound 17047]
- % Control ([1]; Table 16, 0.3 nM): 132%
- % Control ([1]; Table 16, 1 nM): 107%
- % Control ([1]; Table 16, 3 nM): 77%
- % Inhib. ([1]; Table 16, 3 nM): 23%
- % Control ([1]; Table 16, 10 nM): 36%
- % Inhib. ([1]; Table 16, 10 nM): 67%

Substance: 17048 (GCCGACACCCGTTCGTTCGG; phosphorothioate, 2'-modified, further chemistry not given here) [compound 17048]
- % Control ([1]; Table 16, 0.3 nM): 159%
- % Control ([1]; Table 16, 1 nM): 159%
- % Control ([1]; Table 16, 3 nM): 150%
- % Control ([1]; Table 16, 10 nM): 119%

Substance: 107242 (antisense TGAGATCAACAGAAGTACAA; chemistry not given here) [compound 107242]
- % Control [2]: 44%

Substance: 107243 (antisense CCAGCCTTCCACATAACATA; chemistry not given here) [compound 107243]
- % Control [2]: 39%

Substance: 107244 (antisense AGGATAGATTTGTATTGTCT; chemistry not given here) [compound 107244]
- % Control [2]: 37%

Substance: 107245 (antisense GTTGATATAACTCCAACTGT; chemistry not given here) [compound 107245]
- % Control [2]: 35%
- % Control ([3]; Table 25, 1 nM as printed): 27.1%
- % Control ([3]; Table 25, 10 nM): 64.4%
- % Control ([3]; Table 25, 30 nM): 30.3%

Substance: 107246 (antisense TAATCATCATTGCTTTTACT; chemistry not given here) [compound 107246]
- % Control [2]: 42%

Substance: 107247 (antisense AAGAAGTCCTTAATCATCAT; chemistry not given here) [compound 107247]
- % Control [2]: 65%
- % Inhib. [2]: 35%

Substance: 107249 (antisense CTTGTAAACAGTGTCTTTTA; chemistry not given here) [compound 107249]
- % Control [2]: 38%

Substance: 107250 (antisense GAGTAAAAGAAGTCCAAACA; chemistry not given here) [compound 107250]
- % Control [2]: 57%
- % Inhib. [2]: 43%

Substance: 107251 (antisense CCTTGCATGAAGACATAATA; chemistry not given here) [compound 107251]
- % Control [2]: 40%

Substance: 107252 (antisense AAGAGTAATCATTGCTGAGA; chemistry not given here) [compound 107252]
- % Control [2]: 35%
- % Control ([3]; Table 25, 1 nM as printed): 17.4%
- % Control ([3]; Table 25, 10 nM): 7.9%
- % Control ([3]; Table 25, 30 nM): 2.9%

Substance: 107253 (antisense TCTTTGGCTGTATTATTACC; chemistry not given here) [compound 107253]
- % Control [2]: 29%

Substance: 107254 (antisense TGCTTTAGTGTTTCTCTACC; chemistry not given here) [compound 107254]
- % Control [2]: 33%

Substance: 107255 (antisense AAGTCTAAGACTTCTCCAGT; chemistry not given here) [compound 107255]
- % Control [2]: 36%
- % Control ([3]; Table 25, 1 nM as printed): 50.6%
- % Control ([3]; Table 25, 10 nM): 22.9%
- % Control ([3]; Table 25, 30 nM): 19.4%

Substance: 107256 (antisense GAGGCAAGCACATATGGTAA; chemistry not given here) [compound 107256]
- % Control [2]: 45%

Substance: 107257 (antisense TGAAATGAACCTCTGCCCAC; chemistry not given here) [compound 107257]
- % Control [2]: 44%

Substance: 107258 (antisense TTAAAGTGATAATGGTCCAC; chemistry not given here) [compound 107258]
- % Control [2]: 39%

Substance: 107260 (antisense TTTGCCAGTTTGGCCTATAA; chemistry not given here) [compound 107260]
- % Control [2]: 50%
